Data reported in the supplement of paper PMC11208160.

Test: recombinant UMI read abundance after kanamycin selection (control-corrected) (log10(CPM+1)); higher = more efficient recombination; extreme values may be limits of the assay; sequences stand for … in AGTGCAGAGAAAATCGGCCAGTTTTCTCTGCCTGCAGTCCGCATGCCGTGGGACCCCTTGGGTTCTAACCTGTTGCCTAGATTTATGCAGCGGACTGCCTTTCTCCCAAAGTGATAAACCGG…AGGTTGGTTTCACT; site = the 11-nt donor
Procedure: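 Pooled E. coli donor-specificity screen for the IS621 bridge recombinase. Each library member carries a reprogrammed 11-nt donor and a full-length LE bridge RNA expressed in cis from the natural promoter, with a paired donor-binding loop (8-nt LDG + 4-nt RDG) and a target-binding loop fixed to T5. It is co-electroporated with a T5 target plasmid; recombinase is induced with 0.07 mM IPTG and recombinants are selected on kanamycin. UMIs are counted as CPM, averaged over two biological replicates and corrected by the unselected control. Molecule = full bridge RNA written as DNA, built from the T5 scaffold: LDG = donor specificity nt 1-8, RDG = reverse complement of nt 8-11.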
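Further: IS621 bridge recombinase in Escherichia coli cells against a fixed T5 target plasmid.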

Sequence | recombinant UMI read abundance (log10)
ACAGTATCATGGACCGGTTTTCCCGGTAATCCGTATTTGAA (site ACAGTATCTTT) | 3.04
ACAGTATCATGGACCGGTTTTCCCGGTAATCCGTATTTGAC (site ACAGTATCTGT) | 3.52
ACAGTATCATGGACCGGTTTTCCCGGTAATCCGTATTTGAC (site ACAGTATCTTG) | 1.15
ACAGTATCATGGACCGGTTTTCCCGGTAATCCGTATTTGAC (site CTAGTATCTGT) | 1.64
ACAGTATCATGGACCGGTTTTCCCGGTAATCCGTATTTGCC (site ACAGTATCTAG) | 1.42
ACAGTATCATGGACCGGTTTTCCCGGTAATCCGTATTTGCC (site ACAGTATCTCG) | 1.77
ACAGTATCATGGACCGGTTTTCCCGGTAATCCGTATTTGCC (site ACAGTATCTGG) | 2.92
ACAGTATCATGGACCGGTTTTCCCGGTAATCCGTATTTGCC (site ACAGTATCTTG) | 1.9
ACAGTATCATGGACCGGTTTTCCCGGTAATCCGTATTTGTA (site ACAGTATCTTA) | 3.08
ACAGTATCATGGACCGGTTTTCCCGGTAATCCGTATTTGTA (site ACAGTATCTTC) | 2.02
ACAGTATCATGGACCGGTTTTCCCGGTAATCCGTATTTGTA (site ACAGTATCTTG) | 2.51
ACAGTATCATGGACCGGTTTTCCCGGTAATCCGTATTTGTA (site ACAGTATCTTT) | 2.44
ACAGTGTCATGGACCGGTTTTCCCGGTAATCCGTATTTGAA (site ACAGTATCTTG) | 1.04
ACAGTGTCATGGACCGGTTTTCCCGGTAATCCGTATTTGAA (site ACAGTGTCTTT) | 3.19
ACAGTTCCATGGACCGGTTTTCCCGGTAATCCGTATTTGCC (site ACAGTTCCTGG) | 0
ACATCAACATGGACCGGTTTTCCCGGTAATCCGTATTTGTC (site ACATCAACTGA) | 1.34
ACATCAACATGGACCGGTTTTCCCGGTAATCCGTATTTGTG (site ACATCAACTCA) | 0.878
ACATCAACATGGACCGGTTTTCCCGGTAATCCGTATTTGTG (site ACATCCACTCA) | 0.0219
ACATCAACATGGACCGGTTTTCCCGGTAATCCGTATTTGTG (site ACATCGACTCA) | 0.0265
ACATCAACATGGACCGGTTTTCCCGGTAATCCGTATTTGTG (site ACATCTACTCA) | 0.206
ACATCCTCATGGACCGGTTTTCCCGGTAATCCGTATTTGTC (site ACATCCTCTGA) | 2.8
ACATGTACATGGACCGGTTTTCCCGGTAATCCGTATTTGAC (site ACATGTACTGT) | 1.76
ACATTATCATGGACCGGTTTTCCCGGTAATCCGTATTTGCA (site ACAATATCTTG) | 1.92
ACATTATCATGGACCGGTTTTCCCGGTAATCCGTATTTGCA (site ACACTATCTTG) | 2.24

Sequence | recombinant UMI read abundance (log10)
ACATTATCATGGACCGGTTTTCCCGGTAATCCGTATTTGCA (site ACAGTATCTTG) | 1.69
ACATTATCATGGACCGGTTTTCCCGGTAATCCGTATTTGCA (site ACATTATCTTG) | 2.01
ACCAACCCATGGACCGGTTTTCCCGGTAATCCGTATTTGCG (site ACCAACCCTCG) | 0
ACCAAGACATGGACCGGTTTTCCCGGTAATCCGTATTTGGG (site ACCAAGACTCC) | 0.0181
ACCAAGACATGGACCGGTTTTCCCGGTAATCCGTATTTGGG (site ACCCAGACTCC) | 0.0318
ACCAAGACATGGACCGGTTTTCCCGGTAATCCGTATTTGGG (site ACCGAGACTCC) | 0.0218
ACCAAGACATGGACCGGTTTTCCCGGTAATCCGTATTTGGG (site ACCTAGACTCC) | 0.0189
ACCAGAACATGGACCGGTTTTCCCGGTAATCCGTATTTGAA (site ACCAGAACTTT) | 1.72
ACCAGTCCATGGACCGGTTTTCCCGGTAATCCGTATTTGCG (site GATGCATCTTA) | 0
ACCAGTGCATGGACCGGTTTTCCCGGTAATCCGTATTTGGT (site ACAAGTGCTAC) | 0.0927
ACCAGTGCATGGACCGGTTTTCCCGGTAATCCGTATTTGGT (site ACCAGTGCTAC) | 0.472
ACCAGTGCATGGACCGGTTTTCCCGGTAATCCGTATTTGGT (site ACGAGTGCTAC) | 0.0125
ACCAGTGCATGGACCGGTTTTCCCGGTAATCCGTATTTGGT (site ACTAGTGCTAC) | 0.19
ACCCAAGCATGGACCGGTTTTCCCGGTAATCCGTATTTGAG (site AACCAAGCTCT) | 0.712
ACCCAAGCATGGACCGGTTTTCCCGGTAATCCGTATTTGAG (site ACCCAAGCTCT) | 1.97
ACCCAAGCATGGACCGGTTTTCCCGGTAATCCGTATTTGAG (site AGCCAAGCTCT) | 0.021
ACCCAAGCATGGACCGGTTTTCCCGGTAATCCGTATTTGAG (site ATCCAAGCTCT) | 0.467
ACCCACCCATGGACCGGTTTTCCCGGTAATCCGTATTTGAG (site ACCCACCCTCT) | 0.00795
ACCCTAGCATGGACCGGTTTTCCCGGTAATCCGTATTTGAT (site ACCCTAGCTAT) | 0.558
ACCCTCTCATGGACCGGTTTTCCCGGTAATCCGTATTTGGG (site ACCCTCTCTCC) | 0.0124
ACCGAGGCATGGACCGGTTTTCCCGGTAATCCGTATTTGGG (site ACCGAGGCTCC) | 0.157
ACCGCGGCATGGACCGGTTTTCCCGGTAATCCGTATTTGAT (site ACCGCGGCTAT) | 1.78
ACCGGATCATGGACCGGTTTTCCCGGTAATCCGTATTTGAG (site ACCGGATCTCT) | 1.22
ACCGGATCATGGACCGGTTTTCCCGGTAATCCGTATTTGCG (site ACCGGATCTCG) | 2.56

Sequence | recombinant UMI read abundance (log10)
ACCGTAACATGGACCGGTTTTCCCGGTAATCCGTATTTGCA (site ACAGTATCTTG) | 1.49
ACCGTAACATGGACCGGTTTTCCCGGTAATCCGTATTTGCA (site ACCGTAACTTG) | 2.34
ACCGTATCATGGACCGGTTTTCCCGGTAATCCGTATTTGGA (site ACAGTATCTTG) | 0.692
ACCGTATCATGGACCGGTTTTCCCGGTAATCCGTATTTGGA (site ACCGTATCTTC) | 1.83
ACCTAGACATGGACCGGTTTTCCCGGTAATCCGTATTTGGA (site ACCTAGACTAC) | 0
ACCTAGACATGGACCGGTTTTCCCGGTAATCCGTATTTGGA (site ACCTAGACTCC) | 0.0104
ACCTAGACATGGACCGGTTTTCCCGGTAATCCGTATTTGGA (site ACCTAGACTGC) | 0
ACCTAGACATGGACCGGTTTTCCCGGTAATCCGTATTTGGA (site ACCTAGACTTC) | 0.725
ACCTAGTCATGGACCGGTTTTCCCGGTAATCCGTATTTGGG (site ACCTAGACTCC) | 0
ACCTAGTCATGGACCGGTTTTCCCGGTAATCCGTATTTGGG (site ACCTAGCCTCC) | 0.017
ACCTAGTCATGGACCGGTTTTCCCGGTAATCCGTATTTGGG (site ACCTAGGCTCC) | 0.0399
ACCTAGTCATGGACCGGTTTTCCCGGTAATCCGTATTTGGG (site ACCTAGTCTCC) | 0.0642
ACCTATACATGGACCGGTTTTCCCGGTAATCCGTATTTGAC (site AACTATACTGT) | 0
ACCTATACATGGACCGGTTTTCCCGGTAATCCGTATTTGAC (site ACCTATACTGT) | 1.58
ACCTATACATGGACCGGTTTTCCCGGTAATCCGTATTTGAC (site AGCTATACTGT) | 0.0116
ACCTATACATGGACCGGTTTTCCCGGTAATCCGTATTTGAC (site ATCTATACTGT) | 0.368
ACCTCGGCATGGACCGGTTTTCCCGGTAATCCGTATTTGTT (site ACCTCGGCTAA) | 0.681
ACCTGGGCATGGACCGGTTTTCCCGGTAATCCGTATTTGCA (site ACCTGGGCTTG) | 0.909
ACCTTGACATGGACCGGTTTTCCCGGTAATCCGTATTTGGG (site ACCTAGACTCC) | 0.0118
ACCTTGACATGGACCGGTTTTCCCGGTAATCCGTATTTGGG (site ACCTCGACTCC) | 0.0142
ACCTTGACATGGACCGGTTTTCCCGGTAATCCGTATTTGGG (site ACCTGGACTCC) | 0.0127
ACCTTGACATGGACCGGTTTTCCCGGTAATCCGTATTTGGG (site ACCTTGACTCC) | 0.0408
ACGAAGACATGGACCGGTTTTCCCGGTAATCCGTATTTGCA (site AAGAAGACTTG) | 2.3
ACGAAGACATGGACCGGTTTTCCCGGTAATCCGTATTTGCA (site ACGAAGACTTG) | 2.78
